In data set [1] the test system is melanin synthesis. The note with it: cited from earlier work.
In data set [2] the test system is skin. The note with it: cited from earlier work.
For data set [3], the system named is melanocytes in the skin. The note with it: cited from earlier work.
Data set [4] has as its system facial freckles and the normal facial skin. Put plainly: Clinical test of whitening effect of DAP-containing cream, smart skin analysis system. Type of data set: in vivo. The procedure:
Moreover, for proving the whitening effect of the DAP-containing prescription according to the present invention, a clinical test was performed and used the detection device shown in Table 7. Six subjects joining the test received the cream preparation containing 1% or 2% DAP on facial freckles and the normal facial skin twice a day for consecutive […] (2010 Nov. 24-2010 Dec. 15), and the whitening effect was evaluated. [table] According to the foregoing clinical test, data graphs with respect to the disclosed prodrug composition as shown in FIG. 2 through FIG. 7 have been made, while the photographs showing the tested sites of several subjects are reflected in FIG. 8 through FIG.

As for `Oc1ccc(OC2CCCCO2)cc1` (centres unmarked) [DA, deoxy-arbutin], the “anti-melanin effect, times higher than that of HQ” value in data set [1] (relative to HQ) was 10 times. Moreover, the “anti-melanin effect, times higher than that of normal arbutin” value in data set [1] (relative to normal arbutin) is on record as 350 times. The “time to desired clinical effects” value in data set [2] (DA solutions with proper concentration) is “three weeks”. Besides, the “effect of whitening the skin” value in data set [2] (local usage, clinical research for 8 weeks) was “progressive and apparent effect of whitening the skin”. For the same compound, the “safety concentration relative to HQ” value in data set [3] is listed as “four times higher”.
With `c1cc(OC2CCCCO2)ccc1OC1CCCCO1` (centres unmarked) [DAP, 1,4-bis(tetrahydro-2H-pyran-2-yloxy)benzene], the “side effects (toxic to melanocytes, irritative, allergenic to the skin)” value in data set [4] (four-week clinical test, 1% or 2% DAP cream twice a day) is “without side effects”. Besides, in data set [4] (prescription containing 1% DAP, consecutive four weeks, left cheek), the “whitening effect on the normal skin” value is “up to 19%”. For the same compound, the “whitening effect on the solar lentigines” value in data set [4] (prescription containing 2% DAP, consecutive four weeks, left cheek) is on record as “up to 46%”.

The values above are taken from US20120213720A1, “Prodrug composition for skin with twin protecting groups bound by disubstituted benzene” (priority 2011, published 2012).
